# According to patent publication US20230014907A1, “INHIBITORS OF APOL1 AND METHODS OF USING SAME” (Vertex Pharmaceuticals Incorporated, priority 2020, published 2023):
# Biological target: T1, G1 APOL1 (Homo sapiens, UniProt O14791, I384M/S342G)
# T1 construct: expressed in transfected cells
# T1 sequence (O14791 28-398 S342G/I384M): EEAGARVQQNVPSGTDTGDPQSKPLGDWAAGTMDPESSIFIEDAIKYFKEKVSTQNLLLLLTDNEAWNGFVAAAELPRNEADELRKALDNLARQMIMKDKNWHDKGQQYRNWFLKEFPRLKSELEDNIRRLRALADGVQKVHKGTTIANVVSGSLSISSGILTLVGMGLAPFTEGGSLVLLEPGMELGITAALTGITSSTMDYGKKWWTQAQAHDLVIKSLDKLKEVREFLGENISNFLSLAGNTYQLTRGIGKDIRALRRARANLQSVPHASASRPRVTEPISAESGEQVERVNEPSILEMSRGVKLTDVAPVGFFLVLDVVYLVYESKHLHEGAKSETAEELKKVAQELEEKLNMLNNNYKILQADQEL
# Assay: Acute APOL1 Thallium Assay with Inducible Stable Clones of HEK 293 Cells
# Format: cell-based
# Details: HEK 293 inducible stable clones, G1 APOL1; read-out: Thallium Assay (IC50)
# Excerpt: Acute APOL1 Thallium Assay with Inducible Stable Clones of HEK 293 Cells
# Apolipoprotein L1 (APOL1) proteins form potassium-permeable cation pores in the plasma membrane. APOL1 risk variants (G1 and G2) induce greater potassium flux than G0 in HEK293 cells. This assay exploits the permeability of thallium (Tl+) through ligand-gated potassium channels. The dye produces a bright fluorescent signal upon binding to Tl+ conducted through potassium channels. The intensity of the Tl+ signal is proportional to the number of potassium channels in the open state. Therefore, it provides a functional indication of the potassium channel activities. During the initial dye-loading step, the Tl+ indicator dye as an acetoxymethyl (AM) ester enters the cells through passive diffusion. Cytoplasm esterases cleave the AM ester and relieve its active thallium-sensitive form. The cells are then stimulated with Tl+. The increase of fluorescence in the assay represents the influx of Tl+ into the cell specifically through the potassium channel (i.e. through APOL1 pores), providing a functional measurement of potassium channel/pore activity. The Thallium assay is conducted with cells expressing G1 APOL1.
# APOL1 Cell Line (HEK T-Rex Stable Inducible Cell Line) • HEK T-Rex System • Tetracycline (Tet) inducible mammalian expression system. • Stably express the Tet repressor to regulate transcription. • Expression under the full-length CMV promoter. • APOL1 stable inducible cell line Clone used: G1 DC3.25
# Tissue Culture Media • Cell Culture Medium • DMEM+10% FBS+P/S+5 μg/mL blasticidin+1 μg/mL puromycin. • 500 mL DMEM+55 mL FBS+5 mL P/S+280 μL blasticidin S HCl (10 mg/mL)+56 μL puromycin (10 mg/mL). • Cell Assay Medium • DMEM with 2% FBS+penicillin/streptomycin.
# Instruments and Equipment • Nuaire cell culture hood, Cat. No. 540-600 • 37° C./5% CO2 incubator link to robotic arm, Liconic: STX110 • Molecular Devices FLIPR^Tetra High throughput cellular screening system, Cat. No. FT0324, Molecular Devices • ThermoFisher MultiDrop 384, Cat. No. 5840300 • Biotek Microfill, Cat. No. ASF1000A-4145 • BioRad TC10 cell counter, Cat. No. 145-0010
# Cells Scaled Up from Frozen Vials • APOL1 G1 3.25 (HEK293 T-Rex) frozen vials: 5 million cells per vial • Step 1, Day 1: Defrost frozen vial into T-225. • Step 2, Day 5: (when 85% confluent): Split one T-225 at 3×10^6 cells per flask. • Step 3, Day 8: Splits cells to set up for the assay plates as described below.
# T-Rex APOL1 HEK cells are split twice per week to keep the confluence state below 85% of the culture flask surface area. Cells can be kept until passage 25. • Cell Culture Medium • DMEM high glucose+10% FBS, +P/S, +5 μg/mL blasticidin, +1 μg/mL puromycin. • 500 mL DMEM, +55 mL FBS, +5 mL P/S, +280 μL blasticidin 10 mg/mL, +56 μL Puromycin 10 mg/mL. • Assay Media • Opti-MEM reduced serum medium from Invitrogen.
# Preparation of Cell Assay Plates • Culture medium is removed from the x cm^2 T-flask by aspiration. • The cell monolayer is rinsed with PBS 1× at room temperature. PBS is removed by aspiration. • Cells are trypsinized using Trypsin. • The flasks are incubated at room temperature for 2-3 minutes. • Complete DMEM medium is then added. Cell suspension is then transferred to a 50 mL Falcon polypropylene tube. • Cells are then counted using a BioRad TC10 cell counter and the required amount of cells are centrifuged at 1200 RPM for 5 minutes. Required amount is 1.3×10^6 cells/mL APOL1 T-Rex HEK cells. • The pellet is suspended in the assay medium. • Using the MultiDrop, add 20 μL to each well (corresponds to 26000 cells total per well) of a 384-well black, transparent, flat bottom Poly-D coated plate. • Tetracycline as prepared in the following section is added to the cells before plating to induce APOL1 expression. • Plates are left at room temperature for 20 to 30 minutes before incubation at 37° C. and 5% CO2. […]
row,SMILES,IC50
1,CC1(CNC(=O)NCCc2c(-c3ccc(F)cc3)[nH]c3c(F)cc(F)cc23)COC1 [Compound 298],> 1000 nM
2,O=C(CCCc1c(-c2ccc(F)cc2)[nH]c2c(F)cc(F)cc12)N[C@@H]1CCNC1=O [Compound 247],> 1000 nM
3,Cc1cc(F)c2[nH]c(-c3ccc(F)cc3)c(CCC(=O)NC(C)(CO)CO)c2c1 [Compound 225],> 1000 nM
4,O=C(NCCc1c(-c2ccc(F)cc2)[nH]c2c(F)cc(F)cc12)c1cnccn1 [Compound 398],> 1000 nM
5,O=C(NCc1cn(CC(F)(F)F)cn1)OCCc1c(-c2ccc(F)cc2)[nH]c2c(F)cc(F)cc12 [Compound 493],> 1000 nM
6,O=C(NCCc1c(-c2ccc(F)cc2)[nH]c2c(F)cc(F)cc12)C1CC(O)(C(F)(F)F)C1 (centres unmarked) [Compound 314],> 1000 nM
7,Cn1nccc1CNC(=O)CCCc1c(-c2ccc(F)cc2)[nH]c2c(F)cc(F)cc12 [Compound 255],> 1000 nM
8,"O=C1CNC(=O)N1CCc1c(-c2ccc(F)cc2)[nH]c2c(F)cc(F)cc12 [Compound 258, 3-[2-[5,7-difluoro-2-(4-fluorophenyl)-1H-indol-3-yl]ethyl]imidazolidine-2,4-dione]",> 1000 nM
9,Cc1cc(CNC(=O)OCCc2c(-c3ccc(F)cc3)[nH]c3c(F)cc(F)cc23)on1 [Compound 492],> 1000 nM
10,CC1(C(=O)NCCc2c(-c3ccc(F)cc3)[nH]c3c(F)cc(F)cc23)COC1 [Compound 410],250 to 1000 nM
11,O=C1CC(C(=O)NCCc2c(-c3ccc(F)cc3)[nH]c3c(F)cc(F)cc23)CC(=O)N1 [Compound 320],> 1000 nM
12,Cc1occc1CNC(=O)NCCc1c(-c2ccc(F)cc2)[nH]c2c(F)cc(F)cc12 [Compound 295],> 1000 nM
13,Cn1nccc1C(=O)NCCc1c(-c2ccc(F)cc2)[nH]c2c(F)cc(F)cc12 [Compound 392],250 to 1000 nM
14,CC(C)(C)OC(=O)N[C@@H](CO)C(=O)NCCc1c(-c2ccc(F)cc2)[nH]c2c(F)cc(F)cc12 [Compound 308],> 1000 nM
15,NC(=O)CCC(=O)NCCc1c(-c2ccc(F)cc2)[nH]c2c(F)cc(F)cc12 [Compound 343],> 1000 nM
16,O=C(NCCc1c(-c2ccc(F)cc2)[nH]c2c(F)cc(F)cc12)C(O)CO (centres unmarked) [Compound 310],250 to 1000 nM
17,CC1(C(=O)NCCc2c(-c3ccc(F)cc3)[nH]c3c(F)cc(F)cc23)CCC(=O)NC1 (centres unmarked) [Compound 319],> 1000 nM
18,O=C(NCCO)NCCc1c(-c2ccc(F)cc2)[nH]c2c(F)cc(F)cc12 [Compound 286],> 1000 nM
19,C[C@@H](CO)N(C)C(=O)NCCc1c(-c2ccc(F)cc2)[nH]c2c(F)cc(F)cc12 [Compound 300],> 1000 nM
20,O=C(CCc1c(-c2ccc(F)cc2)[nH]c2ccc(F)cc12)N[C@@H](CO)C(F)F [Compound 3],250 to 1000 nM
21,Cc1ccnn1CCC(=O)NCCc1c(-c2ccc(F)cc2)[nH]c2c(F)cc(F)cc12 [Compound 372],> 1000 nM
22,Cn1ccc(C(=O)NCCc2c(-c3ccc(F)cc3)[nH]c3c(F)cc(F)cc23)n1 [Compound 390],> 1000 nM
23,C[C@H](NC(=O)OC(C)(C)C)C(=O)NCCc1c(-c2ccc(F)cc2)[nH]c2c(F)cc(F)cc12 [Compound 313],> 1000 nM
24,Cc1cc(F)c2[nH]c(-c3ccc(F)cc3)c(CCC(=O)NCCO)c2c1 [Compound 218],> 1000 nM
25,NC(=O)CNC(=O)CCCc1c(-c2ccc(F)cc2)[nH]c2c(F)cc(F)cc12 [Compound 246],> 1000 nM
26,O=C(NCCc1c(-c2ccc(F)cc2)[nH]c2c(F)cc(F)cc12)NCC(O)C(F)F (centres unmarked) [Compound 267],> 1000 nM

# The next lines start with the values.
row,IC50,SMILES
1,> 1000 nM,"OC1(CC#Cc2c(-c3ccc(F)cc3)[nH]c3c(F)cc(F)cc23)CCC1 [Compound 525, 1-[3-[5,7-difluoro-2-(4-fluorophenyl)-1H-indol-3-yl]prop-2-ynyl]cyclobutanol]"
2,> 1000 nM,Cc1cnn(CC(=O)NCCc2c(-c3ccc(F)cc3)[nH]c3c(F)cc(F)cc23)c1 [Compound 379]
3,250 to 1000 nM,"O=C(NCCc1c(-c2ccc(F)cc2)[nH]c2c(F)cc(F)cc12)NC(CO)CF (centres unmarked) [Compound 259, 1-[2-[5,7-difluoro-2-(4-fluorophenyl)-1H-indol-3-yl]ethyl]-3-[1-(fluoromethyl)-2-hydroxy-ethyl]urea]"
4,> 1000 nM,Cn1cc(C(=O)NCCc2c(-c3ccc(F)cc3)[nH]c3c(F)cc(F)cc23)cn1 [Compound 391]
5,< 250 nM,C[C@H](CO)NC(=O)CCc1c(-c2ccc(F)cc2)[nH]c2c(F)cc(Cl)cc12 [Compound 208]
6,> 1000 nM,O=C(O)CNC(=O)NCCc1c(-c2ccc(F)cc2)[nH]c2c(F)cc(F)cc12 [Compound 285]
7,< 250 nM,O=C(NCCO)OCCc1c(-c2ccc(F)cc2)[nH]c2c(F)cc(F)cc12 [Compound 443]
8,> 1000 nM,CC1(O)CC(NC(=O)OCCc2c(-c3ccc(F)cc3)[nH]c3c(F)cc(F)cc23)C1 (mixture of isomers) [Compound 495]
9,> 1000 nM,O=C(NCCc1c(-c2ccc(F)cc2)[nH]c2c(F)cc(F)cc12)[C@@H]1CCOC1 [Compound 409]
10,> 1000 nM,NC(=O)CNC(=O)CCc1c(-c2ccc(F)cc2)[nH]c2c(F)cc(Cl)cc12 [Compound 201]
11,> 1000 nM,O=C(NCc1cnco1)OCCc1c(-c2ccc(F)cc2)[nH]c2c(F)cc(F)cc12 [Compound 477]
12,250 to 1000 nM,C[C@@H](CO)NC(=O)CCCc1c(-c2ccc(F)cc2)[nH]c2c(F)cc(F)cc12 [Compound 240]
13,> 1000 nM,C[C@]1(O)C[C@@H](NC(=O)OCCc2c(-c3ccc(F)cc3)[nH]c3c(F)cc(F)cc23)C1 [Compound 489]
14,> 1000 nM,C[C@H](NC(=O)NCCc1c(-c2ccc(F)cc2)[nH]c2c(F)cc(F)cc12)C(=O)O [Compound 281]
15,> 1000 nM,O=C(NCCc1c(-c2ccc(F)cc2)[nH]c2c(F)cc(F)cc12)NCCS(=O)(=O)O [Compound 263]
16,> 1000 nM,"CC(CC(=O)NC(CO)C(F)(F)F)c1c(-c2ccc(F)cc2)[nH]c2c(F)cc(F)cc12 (single isomer, unassigned) [Compound 514]"
17,250 to 1000 nM,NC(=O)C1(NC(=O)OCCc2c(-c3ccc(F)cc3)[nH]c3c(F)cc(F)cc23)CC1 [Compound 473]
18,250 to 1000 nM,CC(CC(N)=O)NC(=O)NCCc1c(-c2ccc(F)cc2)[nH]c2c(F)cc(F)cc12 (racemic) [Compound 271]
19,> 1000 nM,O=C(NCCc1c(-c2ccc(F)cc2)[nH]c2c(F)cc(F)cc12)c1cncs1 [Compound 384]
20,> 1000 nM,"N#Cc1ccc(-c2[nH]c3c(F)cc(F)cc3c2/C=C/C(=O)N[C@H]2CCNC2=O)cc1 [Compound 522, (E)-3-[2-(4-cyanophenyl)-5,7-difluoro-1H-indol-3-yl]-N-[(3S)-2-oxopyrrolidin-3-yl]prop-2-enamide]"
21,250 to 1000 nM,C[C@H](O)CNC(=O)OCCc1c(-c2ccc(F)cc2)[nH]c2c(F)cc(F)cc12 [Compound 462]
